Where two headings read alike, the source gives them in different places.
How the values were obtained:
uterus = experiment: Uterotrophic assay (estrogenic activity from uterine weights); assay type: in vivo, Sprague Dawley rats; set-up: scale not given here; details: female rats, test compound alone once daily for 7 days, s.c. or oral gavage; uterine weight vs vehicle control
Source text: B. Uterotrophic and antiuterotrophic assays
Sprague Dawley rates are obtained from Simmonsen Laboratories, Gilroy, Calif. Estradiol benzoate may be purchased from Sigma Chemical Co., St. Louis, Mo.
The procedure of Wakeling et al., Endocrinology 99:447453 (1983) is followed. Female Sprague Dawley rats weighing 40-50 grams are used for the experiment. In general, animals are quarantined for 3 days after arrival at the experimental site.
Rats are initially weighed and randomly divided into groups with 5 animals in each group. For the uterotrophic assay, animals are dosed once daily with various doses of test compounds in 0.1 or 1.0 ml of sterile saline via subcutaneous injection or oral gavage, respectively. For the antiuterotrophic assay, animals are dosed once daily with the same doses indicated above plus 0.5 μg/rat of estradiol benzoate alone.
The animals are treated for 7 days. On day 8, animals are weighed and then sacrificed. The uterus of each animal is removed immediately after death and weighed; fat materials are trimmed off prior to weighing.
A comparison of uterine weights from the groups receiving test compound alone with those of the vehicle control group gives the estrogenic activity. Antiestrogenic activity is obtained by comparing the uterine weights from the groups receiving test compound plus estradiol with those of the estradiol control group.

Estrone Sulfatase = target: T1, Estrone Sulfatase (Homo sapiens, UniProt P08842); experiment: Effects of Inhibitors on Estrone Sulfatase Activity in MCF-7 Cells; assay type: cell-based
T1 construct: endogenous in cells; host or cells: MCF-7 human breast cancer cells (American Type Culture Collection)
T1 sequence (P08842 22-583): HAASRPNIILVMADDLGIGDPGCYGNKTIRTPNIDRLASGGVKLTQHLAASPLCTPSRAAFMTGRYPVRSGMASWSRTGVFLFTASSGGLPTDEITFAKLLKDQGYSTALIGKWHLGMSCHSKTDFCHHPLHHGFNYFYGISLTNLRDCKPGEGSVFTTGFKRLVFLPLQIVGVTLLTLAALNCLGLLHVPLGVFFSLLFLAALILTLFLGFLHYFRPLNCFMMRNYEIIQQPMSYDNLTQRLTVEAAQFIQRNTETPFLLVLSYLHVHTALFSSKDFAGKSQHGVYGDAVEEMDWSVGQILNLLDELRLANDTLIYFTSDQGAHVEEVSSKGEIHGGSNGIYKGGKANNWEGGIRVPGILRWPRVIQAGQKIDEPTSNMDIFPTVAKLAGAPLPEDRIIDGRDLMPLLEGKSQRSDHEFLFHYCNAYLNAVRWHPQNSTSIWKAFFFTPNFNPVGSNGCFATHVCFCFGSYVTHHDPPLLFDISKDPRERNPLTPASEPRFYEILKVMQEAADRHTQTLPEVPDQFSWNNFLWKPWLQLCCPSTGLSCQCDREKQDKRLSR
Source text: A. Effects of Inhibitors on Estrone Sulfatase Activity in MCF-7 Cells
Reagents: MCF-7 human breast cancer cell line was supplied by the American Type Culture Collection, Rockville, MD. Eagle's minimum essential medium (MEM) and fetal calf serum (FCS) were purchased from Sigma Chemical Company, St. Louis, Mo. [4-^14 C]Estrone, [6,7-^3 H]estradiol and [6,7-^3 H](N)estrone sulfate were obtained from New England Nuclear Research Products, Boston, Mass.
Procedure: The method of Duncan et al., Cancer Res. 53:298-303 (1993) was employed. MCF-7 cells were seeded in 60 mm×15 mm culture dishes at 1×10^5 cells/dish and maintained in 4.0 ml of MEM containing 2 mM glutamine and 5% FCS. The cells were incubated at 37° C. in an atmosphere of 5% CO2 /95% air and 100% humidity, with the medium changed every third day. When the cells reached 80% confluency, the intact monolayers were washed once with Earl's balanced salt solution and incubated in 4.0 ml of serum and phenol re-free MEM containing either the substrate (^3 H-estrone sulfate, 7 pmol, 9×10^5 dpm) and inhibitor dissolved in ethanol, or ethanol alone. The fmal ethanol concentration was always below 1%. The incubation continued under the regular conditions for 24 h. At the end of 24 h, 2.0 ml of medium was transferred into separate tubes containing 7×10^3 dpm of ^14 C-estrone. The mixture was vortexed vigorously for 60 s with 5 ml of toluene. After phase separation, 2.0 ml of the organic phase was transferred into a counting vial for scintillation counting. The amount of estrone sulfate hydrolyzed was calculated on the basis of ^3 H counts obtained, with the added ^14 C-estrone counts used to correct for recovery through the extraction procedure.
The cells remaining in each culture dish were washed once with saline and then scraped with 1.0 ml of 0.5 N NaOH into 10×75 mm tubes. The cell pellets in each tube was incubated at 50° C. for 20 min to ensure that digestion was complete and all proteins had became soluble. An aliquot was then taken for protein determination by Lowry's method (Lowry et al., J. Biol. Chem. 193:265-275 (1951)).
The percentage of inhibition was determined by evaluating the quantity of estrone sulfate hydrolyzed with the inhibitor relative to that without the inhibitor.
As a general practice, all available inhibitors were first tested at 100 μM; the ones showing inhibitory effects at that concentration were tested again at various concentrations to obtain the IC50 values.

[1] = intact MCF-7 human breast cancer cells, 3H-estrone sulfate substrate, 24 h, 37° C., read-out: Estrone Sulfatase Inhibitory Activity IC50

In the case of `C[C@]12CC[C@@H]3c4cc([N+](=O)[O-])c(OS(N)(=O)=O)cc4CC[C@H]3[C@@H]1CCC2=O` [Compound 78, 2-Nitroestra-1,3,5(10)-trien-17-one-3-O-sulfamate], the “Estrogenic Activity” value (uterus) is reported as 0 and the IC50 (Estrone Sulfatase) is reported as 7 nM.
In the case of `CN(C)CCCO[C@H]1CC[C@H]2[C@@H]3CCc4cc(OS(N)(=O)=O)ccc4[C@H]3CC[C@]12C` [Compound 47, 17β-(3'-N,N-Dimethylaminopropoxy)estra-1,3,5(10)-triene-3-O-sulfamate], the “Estrogenic Activity” value (uterus) is reported as 0.27 and the IC50 (Estrone Sulfatase; [1]) is reported as 23 nM.
`CCC/C=C1/CC[C@H]2[C@@H]3CCc4cc(OS(N)(=O)=O)ccc4[C@H]3CC[C@]12C` [Compound 17, [17(20)Z]-19,21-Dinorchola-1,3,5(10)17(20)-tetraene-3-O-sulfamate] was tested, and the “Estrogenic Activity” value (uterus) was 0.55 and the IC50 (Estrone Sulfatase; [1]) was 0.011 nM.
With `C[C@]12CC[C@@H]3c4ccc(OS(N)(=O)=O)cc4CC[C@H]3[C@@H]1CCC2=C(C#N)C#N` [Compound 36, 20-Cyano-19-norpregna-1,3,5(10),17(20)-tetraene-21-nitrile-3-O-sulfamate] the “Estrogenic Activity” value (uterus) was 0.44 and the IC50 (Estrone Sulfatase; [1]) was 0.09 nM.
`CC(=O)Nc1cc2c(cc1OS(N)(=O)=O)CC[C@@H]1[C@@H]2CC[C@]2(C)C(=O)CC[C@@H]12` [Compound 93, 2-Acetoamideestra-1,3,5(10)-trien-17-one-3-O-sulfamate] was tested, and the “Estrogenic Activity” value (uterus) was 0.02 and the IC50 (Estrone Sulfatase; [1]) was 410 nM.
With `CCCC[C@H]1CC[C@H]2[C@@H]3CCc4cc(OS(N)(=O)=O)ccc4[C@H]3CC[C@]12C` [Compound 23, 19,21-Dinorchola-1,3,5(10)-triene-3-O-sulfamate] the “Estrogenic Activity” value (uterus) was 0.02 and the IC50 (Estrone Sulfatase; [1]) was 0.096 nM.
With `CC(C)(C)[Si](C)(C)O[C@@H]1CC[C@H]2[C@@H]3CCc4cc(OS(N)(=O)=O)ccc4[C@H]3CC[C@]12C` [Compound 52, 17α-tert-Butyldimethylsilyloxyestra-1,3,5(10)-triene-3-O-sulfamate] the “Estrogenic Activity” value (uterus) was 0 and the IC50 (Estrone Sulfatase) was 0.31 nM.

— patent publication US6046186A, “Estrone sulfamate inhibitors of estrone sulfatase, and associated pharmaceutical compositions and methods of use” (SRI International, priority 1997, dated 2000)
